# Values quoted from earlier work, collected in US12622907B2, “Hair loss therapy” (NIRMANA BIO, INC., priority 2021, dated 2026).
# Like-named read-outs stand apart in the source and are kept apart here.
# Legend:
# [1] = system: men with male pattern hair loss; conditions: oral 1 mg/day
# 943 women and 461 men = conditions: for subjects who had to stop treatment because of a side effect: low doses used for hair loss
Compound,"recipients with no further hair loss compared with baseline (hair counts) ([1]; men with vertex hair loss, after 2 years) [%]","recipients with improvement in hair growth in global photographs ([1]; men with vertex hair loss, at 1 year) [%]","recipients with improvement in hair growth in global photographs ([1]; men with vertex hair loss, at 2 years) [%]",effect on hair growth and hair loss ([1]; significant proportion of men with male pattern hair loss),frequency of side effects (943 women and 461 men; low doses which are used to treat hair loss),subjects who had to stop treatment because of a side effect (943 women and 461 men; men (461)) [%],subjects who had to stop treatment because of a side effect (943 women and 461 men; women (943)) [%]
"CC(C)(C)NC(=O)[C@H]1CC[C@H]2[C@@H]3CC[C@H]4NC(=O)C=C[C@]4(C)[C@H]3CC[C@]12C [finasteride, Finasteride]",83,48,66,promotes hair growth and prevents further hair loss,–,–,–
"Nc1cc(N2CCCCC2)nc(N)[n+]1[O-] [minoxidil, Minoxidil]",–,–,–,–,very uncommon,0.5,2.5
